In ChEMBL document CHEMBL1201862, “PubChem BioAssay data set” (2004):
Activity calls are given as the source filed them.

What was measured:
[1] = tested on: Streptococcus sp. 'group A'; assay: growth inhibition of control SK(-) GAS strain, dose response, counter-screen for streptokinase expression inhibitor project, luminescence, kanamycin, BacTiterGlo, confirmation (AID 1900); assay type: functional, organism-based
[2] = target: T1, SUMO-activating enzyme (Homo sapiens, UniProt Q9UBT2); assay: SUMOylation inhibitor hit validation, confirmation, SUMOylation inhibitor project, biochemical, AlphaScreen (AID 2018); assay type: functional
T1 sequence (Q9UBE0 whole entry): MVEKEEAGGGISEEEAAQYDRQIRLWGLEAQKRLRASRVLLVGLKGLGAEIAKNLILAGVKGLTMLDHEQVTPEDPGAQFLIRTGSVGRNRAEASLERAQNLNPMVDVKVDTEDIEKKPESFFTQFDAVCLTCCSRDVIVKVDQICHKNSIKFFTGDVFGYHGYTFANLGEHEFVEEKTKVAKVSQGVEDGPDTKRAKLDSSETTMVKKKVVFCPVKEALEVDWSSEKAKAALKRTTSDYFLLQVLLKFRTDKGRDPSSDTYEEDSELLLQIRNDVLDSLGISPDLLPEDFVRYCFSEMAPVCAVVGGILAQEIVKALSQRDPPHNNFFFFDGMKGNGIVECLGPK
T1 sequence (Q9UBT2 whole entry): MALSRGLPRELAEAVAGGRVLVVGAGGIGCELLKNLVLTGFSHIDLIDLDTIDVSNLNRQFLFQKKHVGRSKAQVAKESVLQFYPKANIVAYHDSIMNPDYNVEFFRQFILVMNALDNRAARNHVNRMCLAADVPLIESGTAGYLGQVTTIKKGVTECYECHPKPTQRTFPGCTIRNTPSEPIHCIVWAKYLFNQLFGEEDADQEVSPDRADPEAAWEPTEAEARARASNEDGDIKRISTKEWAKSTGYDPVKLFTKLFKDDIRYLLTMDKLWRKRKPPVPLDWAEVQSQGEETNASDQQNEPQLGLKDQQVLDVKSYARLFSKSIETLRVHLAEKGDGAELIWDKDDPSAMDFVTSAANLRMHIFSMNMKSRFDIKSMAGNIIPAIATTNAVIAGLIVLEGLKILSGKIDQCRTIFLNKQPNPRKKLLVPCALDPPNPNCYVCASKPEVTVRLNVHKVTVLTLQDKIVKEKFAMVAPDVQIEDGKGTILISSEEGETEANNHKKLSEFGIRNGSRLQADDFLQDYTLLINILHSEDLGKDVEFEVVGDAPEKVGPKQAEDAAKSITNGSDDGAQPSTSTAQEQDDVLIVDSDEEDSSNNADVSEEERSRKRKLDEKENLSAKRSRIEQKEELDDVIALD

[3] = target: T1, SUMO-activating enzyme; assay: inhibitors of in vitro SUMOylation cascade, primary screen, biochemical, HTRF, uHTS (AID 2006); assay type: protein-complex assay
[4] = tested on: Streptococcus; assay: Group A Streptococcus viability loss, dose response, counter-screen for streptokinase expression inhibitor project, luminescence, BacTiterGlo (AID 1915); assay type: functional, organism-based;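 further: potency for reduction of bacterial viability or growth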
[5] = target: T2, X-box-binding protein 1 (Homo sapiens, UniProt P17861); assay type: functional, Cricetulus griseus;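 further: confirmatory dose-response counter-screen serving a CHOP assay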
T2 sequence (P17861 whole entry): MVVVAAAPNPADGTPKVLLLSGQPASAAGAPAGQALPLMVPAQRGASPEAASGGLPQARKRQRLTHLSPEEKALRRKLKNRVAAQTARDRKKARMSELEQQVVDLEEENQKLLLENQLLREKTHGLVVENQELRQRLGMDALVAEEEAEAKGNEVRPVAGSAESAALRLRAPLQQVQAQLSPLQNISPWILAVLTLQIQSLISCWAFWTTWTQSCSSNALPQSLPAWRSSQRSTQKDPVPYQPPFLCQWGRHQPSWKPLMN

[6] = target: T3, Protein RecA (Mycobacterium tuberculosis, UniProt P9WHJ3); assay: Fluorescence Cell-Free Homogeneous Dose Retest to Identify Inhibitors of RecA-Intein Splicing Activity. [Related pubchem assays (depositor defined):AID2097, AID2223, AID489010, AID492950]; assay type: functional
T3 sequence (P9WHJ3 whole entry): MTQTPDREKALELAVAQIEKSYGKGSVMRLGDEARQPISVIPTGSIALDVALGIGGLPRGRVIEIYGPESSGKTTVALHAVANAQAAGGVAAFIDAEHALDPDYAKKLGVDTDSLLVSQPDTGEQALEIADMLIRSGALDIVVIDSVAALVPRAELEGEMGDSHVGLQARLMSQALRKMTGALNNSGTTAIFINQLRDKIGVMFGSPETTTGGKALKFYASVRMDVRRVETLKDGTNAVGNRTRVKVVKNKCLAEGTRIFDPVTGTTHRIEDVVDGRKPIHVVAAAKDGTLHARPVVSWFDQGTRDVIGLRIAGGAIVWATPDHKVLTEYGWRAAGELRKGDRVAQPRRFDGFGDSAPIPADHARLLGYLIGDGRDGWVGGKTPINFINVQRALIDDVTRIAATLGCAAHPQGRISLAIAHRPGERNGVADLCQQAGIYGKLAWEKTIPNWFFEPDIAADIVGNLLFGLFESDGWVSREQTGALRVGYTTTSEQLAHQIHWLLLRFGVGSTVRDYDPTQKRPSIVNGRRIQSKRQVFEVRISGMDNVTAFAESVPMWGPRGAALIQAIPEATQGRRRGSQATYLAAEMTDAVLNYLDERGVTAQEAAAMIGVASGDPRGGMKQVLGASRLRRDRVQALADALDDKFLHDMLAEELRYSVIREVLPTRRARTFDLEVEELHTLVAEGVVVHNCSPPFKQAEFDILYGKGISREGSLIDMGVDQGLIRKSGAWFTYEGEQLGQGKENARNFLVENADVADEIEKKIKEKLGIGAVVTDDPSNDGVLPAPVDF

[7] = tested on: INS1; assay: beta cell apoptosis inhibitors, cytokine rescue, dose response, luminescence, retest (AID 449756); assay type: functional, cell-based; conditions: Rattus norvegicus;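 further: cell death triggered by IL-1 beta plus TNF-alpha plus IFN-gamma mixture; protective hits raise ATP signal compared with cytokine alone wells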
[8] = target: T4, Long-chain-fatty-acid--AMP ligase FadD28 (Mycobacterium tuberculosis, UniProt P9WQ59); assay: Fluorescence polarization aasay to screen for inhibitors that compete for the binding of FadD28 to a bisubstrate Measured in Biochemical System Using Plate Reader - 2147-01_Inhibitor_Dose_CherryPick_Activity.; assay type: functional, Mycobacterium tuberculosis H37Rv
T4 sequence (P9WQ59 whole entry): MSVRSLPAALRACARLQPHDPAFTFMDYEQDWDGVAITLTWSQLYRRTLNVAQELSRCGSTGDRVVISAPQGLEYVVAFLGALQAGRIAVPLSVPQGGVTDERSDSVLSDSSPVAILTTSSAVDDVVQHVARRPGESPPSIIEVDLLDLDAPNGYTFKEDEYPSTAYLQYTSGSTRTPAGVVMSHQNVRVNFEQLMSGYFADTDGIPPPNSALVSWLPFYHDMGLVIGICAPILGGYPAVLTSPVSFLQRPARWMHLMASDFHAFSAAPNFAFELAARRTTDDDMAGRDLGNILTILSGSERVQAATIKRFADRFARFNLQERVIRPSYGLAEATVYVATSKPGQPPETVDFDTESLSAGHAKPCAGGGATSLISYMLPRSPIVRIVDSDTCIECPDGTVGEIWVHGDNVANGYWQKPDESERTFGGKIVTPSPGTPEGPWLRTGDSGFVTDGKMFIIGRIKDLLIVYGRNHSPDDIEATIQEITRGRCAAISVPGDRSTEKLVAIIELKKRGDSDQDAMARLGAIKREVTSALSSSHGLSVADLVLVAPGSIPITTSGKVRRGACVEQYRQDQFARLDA

[9] = target: E3 ubiquitin-protein ligase UHRF1 (Homo sapiens, UniProt Q96T88); assay: Counterscreen for inhibitors of 5-meCpG-binding domain protein 2 (MBD2): TRFRET-based biochemical high throughput dose response assay to identify inhibitors of binding of ubiquitin-like with PHD and ring finger domains 1 (UHRF1) to methylated oligonucleotide.
Sequence of E3 ubiquitin-protein ligase UHRF1 (Q96T88 whole entry, the tested form may be a part): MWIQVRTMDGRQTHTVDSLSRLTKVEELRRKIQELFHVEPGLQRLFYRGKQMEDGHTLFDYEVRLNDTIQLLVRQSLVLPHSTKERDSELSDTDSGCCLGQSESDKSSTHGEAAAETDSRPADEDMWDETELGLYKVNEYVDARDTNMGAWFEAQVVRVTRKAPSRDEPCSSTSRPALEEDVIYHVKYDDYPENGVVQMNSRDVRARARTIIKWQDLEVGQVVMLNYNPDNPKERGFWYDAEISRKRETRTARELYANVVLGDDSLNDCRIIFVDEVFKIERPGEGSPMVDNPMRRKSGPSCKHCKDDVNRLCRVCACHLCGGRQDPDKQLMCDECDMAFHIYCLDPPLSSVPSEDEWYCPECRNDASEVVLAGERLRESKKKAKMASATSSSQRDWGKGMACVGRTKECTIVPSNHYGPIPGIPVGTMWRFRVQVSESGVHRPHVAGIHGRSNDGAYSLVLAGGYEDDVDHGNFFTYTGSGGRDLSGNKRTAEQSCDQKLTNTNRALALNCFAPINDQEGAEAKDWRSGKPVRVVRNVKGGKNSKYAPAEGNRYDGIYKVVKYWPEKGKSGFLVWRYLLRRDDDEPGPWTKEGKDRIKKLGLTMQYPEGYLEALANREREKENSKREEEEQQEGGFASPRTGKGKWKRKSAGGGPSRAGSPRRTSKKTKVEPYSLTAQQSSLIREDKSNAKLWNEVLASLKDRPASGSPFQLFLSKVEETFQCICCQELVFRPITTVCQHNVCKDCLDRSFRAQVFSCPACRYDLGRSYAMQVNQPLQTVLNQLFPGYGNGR

[10] = target: T5, Tyrosyl-DNA phosphodiesterase 2 (Homo sapiens, UniProt O95551); assay: human TDP2 enzyme inhibitors, dose response, biochemical, epi absorbance, IC50 (AID 743297)
T5 sequence (O95551 whole entry): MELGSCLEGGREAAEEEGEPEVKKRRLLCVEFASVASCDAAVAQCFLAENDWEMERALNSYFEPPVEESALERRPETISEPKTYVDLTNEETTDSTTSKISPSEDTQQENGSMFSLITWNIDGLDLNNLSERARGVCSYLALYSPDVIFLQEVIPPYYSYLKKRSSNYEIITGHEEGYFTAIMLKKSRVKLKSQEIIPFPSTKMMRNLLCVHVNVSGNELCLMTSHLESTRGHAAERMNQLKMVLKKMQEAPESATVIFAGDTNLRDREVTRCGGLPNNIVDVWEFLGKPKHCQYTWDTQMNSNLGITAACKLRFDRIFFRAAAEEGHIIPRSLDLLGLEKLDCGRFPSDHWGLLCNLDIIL

**Q.** For `CCCCn1c(NS(=O)(=O)c2ccccc2)c(S(=O)(=O)c2ccc(C)cc2)c2nc3ccccc3nc21`, which EC50 [1] is on record?
**A.** 3.56 µM (active)

**Q.** What about the IC50 [2] of the same compound?
**A.** 0.68 µM (active)

**Q.** What about the IC50 [3] of the same compound?
**A.** 1.83 µM (active)

**Q.** And the EC50 [4]?
**A.** 14.1 µM (active)

**Q.** And the “Absolute IC50 (XBP1)” value [5]?
**A.** 10 µM

**Q.** And the EC50 [6]?
**A.** 0.0801 µM (inconclusive)

**Q.** What about the AC50 [7] of the same compound?
**A.** 20.5 µM (active)

**Q.** What about the AC50 [8] of the same compound?
**A.** 46.5 µM (active)

**Q.** And the IC50 [9]?
**A.** > 43.8 µM (inactive)

**Q.** What about the IC50 [10] of the same compound?
**A.** 7.83 µM (active)
